{"source": "patent US10980775B2", "about": "“Composition for prevention or treatment of cutaneous disorder” (XANTIAL, priority 2015, dated 2021)", "key": {"HMVEC/NHDF co-culture": {"tested_on": "HMVEC/NHDF co-culture", "experiment": "Pseudotube formation (branching points) in VEGF-stimulated HMVEC/NHDF co-culture, in situ immunolabeling", "type": "cell-based, human", "conditions": "VEGF 100 ng/ml, 10 days; for Number of branching points, Mean: n=3; for Number of branching points: single replicate", "experimental": "Analysis of pseudotube formation in a HMVEC/NHDF co-culture by in situ immunolabeling.\nHuman Microvascular Endothelial Cells (HMVEC) • Cell type: HMVEC, used at the 7th passage\nHMVEC/NHDF Co-Culture • Cell type: HMVEC+NHDF (50:50 ratio) • Culture conditions: 37° C., 5% CO2 • Co-culture medium: Endothelial Cell Basal Medium 2 (EBM-2) supplemented with Fetal calf serum (FCS) 5%, rhEGF, rhFGF, R3 IGF-1, hydrocortisone, vitamin C and gentamycin +\nDMEM supplemented with L-glutamine 2 mM, Penicillin 50 U/ml, Streptomycin 50 μg/ml FCS 10%.\nThe HMVEC and NHDF were seeded in 96-well plates and co-cultured in co-culture medium for 24 hours. The medium was then removed and replaced by co-culture medium containing or not (control) the test compounds, associations or the reference, suramine at 5 μM, in presence or not (non-stimulated control) of the inducer, VEGF at 100 ng/ml. The cells were incubated for 10 days with treatment renewal after 72 hours of incubation. All experimental conditions were performed in n=3.\nAfter incubation, culture media were discarded and the cells were rinsed, fixed and permeabilized. The cells were then labeled using a primary antibody anti-Von Willebrand Factor.\nThe formation of pseudotubes was observed using a NIKON Diaphot 300 microscope (lens×4). The images were captured (1 photo per well) using a NIKON DS-Fi1 camera and NIS-Elements 3.10 software. Then the number of branching points within the pseudotube network was counted on each image."}, "[1]": {"tested_on": "collagen I expression in NHDF", "experiment": "Collagen I expression in NHDF stimulated with vitamin C+TGF-beta, in situ immunolabeling", "type": "cell-based, human", "conditions": "50 μg/ml, 72 hours", "experimental": "Analysis of collagen I expression in NHDF stimulated with vitamin C+TGF-beta by in situ immunolabeling. Activated HMVEC release TGF-beta which stimulates extracellular matrix synthesis by NHDF. TGF-beta stimulates the synthesis of collagen and vitamin C its release, creating experimental conditions close to TSC pathology conditions.\nNormal Human Dermal Fibroblasts (NHDF) • Cell type: NHDF, used at the 8th passage • Culture conditions: 37° C., 5% CO2 • Culture medium: DMEM supplemented with L-glutamine 2 mM, Penicillin 50 U/ml—Streptomycin 50 μg/ml Fetal calf serum (FCS) 10% • Assay medium: DMEM supplemented with L-glutamine 2 mM, Penicillin 50 U/ml, Streptomycin 50 μg/ml FCS 1%. Culture and Treatment\nThe fibroblasts were seeded in 96-well plates and cultured in culture medium for 24 hours. The medium was then replaced with assay medium containing or not (control) the test compounds or associations in presence or not (non-stimulated control) of the association vitamin C+TGF-beta (20 μg/ml+10 ng/ml). The cells were incubated for 72 hours. All experimental conditions were performed in n=3.\nAfter incubation, culture media were discarded and the cells were rinsed, fixed and permeabilized.\nThe acquisition of the images (5 photos per well) was performed using INCell Analyzer™ 1000 (GE Healthcare). Representative images for each experimental condition were included in the report.\nThe labeling was quantified by the measurement of the fluorescence intensity normalized to the total number of cells (Integration of numerical data with the Developer Toolbox 1.5, GE Healthcare software)."}}, "note": "Several values for one entry are separate records, joined by “and”; a condition that tells them apart may be missing. Equal values may be shown once."}
{"smiles": "COc1cc2c(cc1O)CCC(C)(C)O2", "note": "[Dimethylmethoxy chromanol]", "values": [{"measurement": "% stimulated control (branching points)", "setting": "HMVEC/NHDF co-culture; 6 μg/ml", "result": 79, "unit": "%"}, {"measurement": "Number of branching points, Mean", "setting": "HMVEC/NHDF co-culture; 6 μg/ml", "result": 98}, {"measurement": "Number of branching points", "setting": "HMVEC/NHDF co-culture; 6 μg/ml", "result": "83 and 104 and 109"}, {"measurement": "inhibition at 6 µg/mL", "setting": "HMVEC/NHDF co-culture; Homo sapiens, 240 h, 6 μg/ml", "result": 21, "unit": "%"}, {"measurement": "Collagen I, Mean (basic data)", "setting": "[1]; NHDF + vitamin C+TGF-beta (20 μg/ml+10 ng/ml), n=3", "result": 274529}, {"measurement": "Collagen I branching points (basic data)", "setting": "[1]; NHDF + vitamin C+TGF-beta (20 μg/ml+10 ng/ml), single replicate", "result": "250891 and 283414 and 289284"}, {"measurement": "% Stimulated control (collagen I)", "setting": "[1]; NHDF + vitamin C+TGF-beta", "result": 73, "unit": "%"}, {"measurement": "% inhibition (collagen I expression)", "setting": "[1]; NHDF + vitamin C+TGF-beta", "result": 71, "unit": "%"}]}
{"smiles": "Oc1ccc(/C=C/c2cc(O)cc(O)c2)cc1", "note": "[Resveratrol, 3,5,4′-trihydroxy-trans-stilbene]", "values": [{"measurement": "% stimulated control (branching points)", "setting": "HMVEC/NHDF co-culture; 2 μg/ml", "result": 113, "unit": "%"}, {"measurement": "Number of branching points, Mean", "setting": "HMVEC/NHDF co-culture; 2 μg/ml", "result": 141}, {"measurement": "Number of branching points", "setting": "HMVEC/NHDF co-culture; 2 μg/ml", "result": "139 and 157 and 126"}, {"measurement": "inhibition at 2 µg/mL", "setting": "HMVEC/NHDF co-culture; Homo sapiens, 240 h, 2 μg/ml", "result": -13, "unit": "%"}]}
{"smiles": "Cc1ccc(C(=O)Nc2ccc(S(=O)(=O)O)c3cc(S(=O)(=O)O)cc(S(=O)(=O)O)c23)cc1NC(=O)c1cccc(NC(=O)Nc2cccc(C(=O)Nc3cc(C(=O)Nc4ccc(S(=O)(=O)O)c5cc(S(=O)(=O)O)cc(S(=O)(=O)O)c45)ccc3C)c2)c1", "note": "[Suramine, reference compound]", "values": [{"measurement": "% stimulated control (branching points)", "setting": "HMVEC/NHDF co-culture; 5 μM", "result": 63, "unit": "%"}, {"measurement": "Number of branching points, Mean", "setting": "HMVEC/NHDF co-culture; 5 μM", "result": 78}, {"measurement": "Number of branching points", "setting": "HMVEC/NHDF co-culture; 5 μM", "result": "72 and 85 and 79"}, {"measurement": "inhibition at 5 µM", "setting": "HMVEC/NHDF co-culture; Homo sapiens, 240 h, 5 μM", "result": 37, "unit": "%"}]}
